Like-named read-outs stand apart in the source and are kept apart here.
Assays:
[1] = tested on: Male Wistar rats (glandular mucosa of the stomach); test: Gastrolesive activity: gastric mucosal lesion index in rats; type: in vivo; settings: rat, aspirin 120 mg/kg intragastric or equimolar doses, 3 hours after treatment, mean ± SEM
Method: Male Wistar rats, […] (Harlan, S. Pietro al Natisone, Italy) were individually housed in hanging stainless-steel cages with grid floors, at constant room temperature (25±1° C.) and humidity (60±5%), with an artificial 12:12 h light/dark cycle. They were deprived of food but not of water 24 h before the experiments. Groups of rats (n=8-10) were given aspirin (Acetylsalicylic acid) 120 mg/kg by intragastric route or equimolar doses of the compounds under study. Rats were sacrificed 3 hours after the administration of the compounds. Immediately after the sacrifice, the stomachs were removed, opened along the lesser curvature and examined for the assessment of mucosal lesions, the stomachs were laid on a flat surface under a stereomicroscope. The glandular mucosa was examined and each individual hemorrhagic lesion was measured along its greatest length (<1 mm: rating=1; 1-2 mm: rating=2; >2 mm: rating according to their greatest length). The lengths of the lesions were summed to give an overall total, designated as the lesion index, for each stomach. Statistical analysis was performed with ANOVA followed by Newman Keuls test.

[2] = Hydrolysis in human serum; type: in vitro ADME; settings: 37°C, RP-HPLC, half-life of hydrolysis, read-out: Uman Serum stability (t1/2 h) (converted)
Method: A solution of each compound (10 mM) in acetonitrile was added to human serum (Sigma) preheated at 37° C., the final concentration of the compound was 250 μM. Resulting solution was incubated at 37±0.5° C. and at appropriate time intervals 500 μL of reaction mixture was withdrawn and added to 750 μL of acetonitrile containing 0.1% trifluoroacetic acid in order to deproteinize the serum. Sample was sonicated, vortexed and then centrifuged for 10′ at 2150 g, The clear supernatant was filtered by 0.45 μm PTFE filters (Alltech) and analysed by RP-HPLC.
(§1) The reverse-phase HPLC procedure allowed separation and quantitation of remaining salicylic ester and of salicylic acid.
(§2) HPLC analyses were performed with a HP 1100 chromatograph system (Agilent Technologies, Palo Alto, Calif., USA) equipped with a quaternary pump (model G1311A), a membrane degasser (G1379A), a diode-array detector (DAD) (model G1315B) integrated in the HP1100 system. Data analysis was done using a HP ChemStation system (Agilent Technologies). The analytical column was a Nucleosil 100-5C18 Nautilus (250×4.6 mm, 5 μm particle size) (Macherey-Nagel). The mobile phase consisting of acetonitrile/water (55/45) with 0.1% trifluoroacetic acid and the flow-rate was 1.2 mL/min. The injection volume was 20 μL (Rheodyne, Cotati, Calif.). The column effluent was monitored at 226 nm (for salicylic esters) and 240 nm (for salicylic acid) referenced against a 600 nm wavelength. Quantitation was done by comparison of peak areas with standards chromatographed under the same conditions.
(§3) The hydrolysis of all esters followed first-order kinetics; the observed pseudo-first-order rate constants (kobs) for the hydrolysis were calculated from the slopes of linear plots of the natural logarithm of percent remaining salicylic ester against time and the corresponding half-lives (t1/2) were obtained from: […]

[3] = tested on: rats (carrageenan paw edema); test: Anti-inflammatory activity: carrageenan-induced paw edema in conscious rats; type: in vivo; parameters: concentration or dose not given beside the values; settings: rat, intragastric, paw volume 3 hours after carrageenan, mean ± SEM
Method: Paw edema was induced in conscious rats by subplantar injection of carrageenan (0.1 ml of 1% carrageenan suspension in carboxymethylcellulose 1%). Immediately after carrageenan injection, compounds or vehicle (CMC, 1%) were administered intragastrically to different groups of rats in a volume of 10 ml/kg. Paw volume was measured with a plethysmometer (Basile, Comerio, Italy) immediately before carrageenan injection and 3 hours afterwards. Paw edema was determined in each rat by subtracting the initial volume displacement (pre-drug) from the subsequent post-carrageenan measurement. Edema was expressed as the percent increase in paw volume relative to the preinjection value for each animal. Statistical analysis was performed with ANOVA followed by Newman Keuls test.

[4] = Hydrolysis in acidic medium (pH 1); type: physicochemical; settings: HCl 0.1M, 250 μM, 37°C
Method: A solution of each compound (10 mM) in acetonitrile was added to a HCl 0.1M preheated at 37° C., the final concentration of the compound was 250 μM. Resulting solution was maintained at 37±0.5° C. and at appropriate time intervals a 20 μL aliquote of reaction solution was analysed by RP-HPLC.
as §1, §2, §3

[5] = target: T1, cyclooxygenase type-2 (COX2) (Mus musculus, UniProt Q05769); test: Inhibition of COX2 activity (PGE2 formation) in LPS/IFNγ-induced RAW 264.7 macrophages; settings: RAW264.7, read-out: COX2 inhibition %
T1 sequence (Q05769 18-604): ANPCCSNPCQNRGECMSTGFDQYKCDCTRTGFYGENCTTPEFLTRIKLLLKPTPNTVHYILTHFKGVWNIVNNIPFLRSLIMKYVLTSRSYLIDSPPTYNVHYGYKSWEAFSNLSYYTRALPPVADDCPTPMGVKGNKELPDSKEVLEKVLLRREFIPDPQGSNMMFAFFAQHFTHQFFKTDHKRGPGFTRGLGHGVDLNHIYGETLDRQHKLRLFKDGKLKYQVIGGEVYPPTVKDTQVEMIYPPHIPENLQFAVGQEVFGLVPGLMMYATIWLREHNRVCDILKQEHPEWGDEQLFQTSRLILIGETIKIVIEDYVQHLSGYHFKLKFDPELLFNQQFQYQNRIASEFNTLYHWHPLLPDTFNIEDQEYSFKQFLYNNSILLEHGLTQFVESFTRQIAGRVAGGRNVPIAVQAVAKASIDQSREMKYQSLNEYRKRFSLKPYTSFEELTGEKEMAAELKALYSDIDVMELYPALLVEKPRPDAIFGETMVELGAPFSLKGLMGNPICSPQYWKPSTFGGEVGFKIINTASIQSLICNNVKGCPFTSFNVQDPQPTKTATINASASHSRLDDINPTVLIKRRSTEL
Method: The inhibitory activity on COX2 was, instead, analyzed following the induction of this protein with 1 μg/mL of the bacterial endotoxin, lipopolysaccharide (LPS) and 10 ng/mL of interferon-γ (IFNγ) that were applied for 16 h to RAW 264.7 macrophages previously treated with 100 μM of the irreversible blocker, aspirin (ASA). Arachidonic acid served as substrate for the enzyme and the extent of PGE2 formation taken as index of COX2 activity.

[6] = target: T2, cyclooxygenase type-1 (COX1) (Mus musculus, UniProt P22437); test: Inhibition of COX1 activity (PGE2 release) in resting RAW 264.7 macrophages; type: cell-based; settings: for Type of inhibition “Irreversibile”: 30 min exposure, substrate applied directly or after extensive washing, difference less than 5% = irreversible
T2 construct: cyclooxygenase type-1 (COX1) activity was estimated in resting RAW 264.7 macrophages; endogenous in cells; host or cells: RAW 264.7 macrophages (resting)
T2 sequence (P22437 27-602): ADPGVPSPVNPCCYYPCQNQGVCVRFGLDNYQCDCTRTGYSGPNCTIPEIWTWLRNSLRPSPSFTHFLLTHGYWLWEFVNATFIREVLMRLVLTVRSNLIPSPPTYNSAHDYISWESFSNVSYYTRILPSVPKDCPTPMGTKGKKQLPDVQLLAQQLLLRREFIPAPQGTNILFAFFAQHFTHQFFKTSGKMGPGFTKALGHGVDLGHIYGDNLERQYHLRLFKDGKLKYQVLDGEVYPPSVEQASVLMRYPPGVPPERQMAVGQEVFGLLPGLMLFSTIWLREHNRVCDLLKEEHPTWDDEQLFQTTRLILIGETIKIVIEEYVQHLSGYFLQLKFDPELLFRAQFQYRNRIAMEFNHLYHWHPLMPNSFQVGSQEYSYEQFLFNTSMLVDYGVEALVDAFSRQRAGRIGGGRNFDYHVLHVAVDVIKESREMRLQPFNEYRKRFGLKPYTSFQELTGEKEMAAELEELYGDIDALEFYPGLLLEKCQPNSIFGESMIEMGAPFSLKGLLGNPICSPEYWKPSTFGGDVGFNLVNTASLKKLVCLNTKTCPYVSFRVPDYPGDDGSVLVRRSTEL
Method: The extent and type of inhibitory effects of this class of compounds on cyclooxygenase type-1 (COX1) activity was estimated in resting RAW 264.7 macrophages.
The type of inhibition (irreversible vs. reversible) was determined in resting conditions by exposing the cells to the test compounds for 30 min followed by the application of the substrate either directly or after extensive washing and then incubated for additional 15 min. The presence of residual activity (difference less than 5% vs. that recorded without washing) was taken as index of the irreversible nature of the inhibitory effects of the compounds.

[7] = 10 μM, resting RAW 264.7 macrophages, arachidonic acid 1 μM
[8] = 30 μM, resting RAW 264.7 macrophages, arachidonic acid 1 μM
[9] = RAW264.7, read-out: COX1 inhibition %

SMILES | Gastrotoxicity Lesion index (mm) [1] [mm] | half-life at 250 μM [2] [h] | Anti inflammatory activity Paw edema (% increase) [3] [%] | pH 1 stability (% after 3 h) [4] [%] | inhibition at 1 µM [5] [%] | inhibition at 10 µM [5] [%] | inhibition at 30 µM [5] [%] | COX1 inhibition % [6, 7] [%] | COX1 inhibition % [6, 8] [%] | Type of inhibition “Irreversibile” [6] | melting point [°C] | also measured
CC(=O)Oc1ccccc1C(=O)O [Acetylsalicylic acid, reference compound] | 44.75 ± 4.66 | 1.37 | 32.95 ± 3.19 | >90 | 2 | 5 | 20 | 27 | 53 | YES | – | inhibition at 1 µM ([6]; RAW264.7, 1 μM, resting RAW 264.7 macrophages, arachidonic acid 1 μM, read-out: COX1 inhibition %): < 2%
CCC(=O)Oc1ccccc1C(=O)O [Propanoylsalicylic acid, reference compound] | 52.00 ± 11.78 | – | 48.13 ± 6.54 | – | – | – | – | – | – | – | – | –
O=C(CCO[N+](=O)[O-])Oc1ccccc1C(=O)O [Compound (1), 2-{[3-(nitrooxy)propanoyl]oxy}benzoic acid] | – | 0.26 | – | >90 | – | – | – | – | – | – | – | –
O=C(CCC(CO[N+](=O)[O-])O[N+](=O)[O-])Oc1ccccc1C(=O)O (centres unmarked) [Compound (6), 2-{[4,5-bis(nitrooxy)pentanoyl]oxy}benzoic acid] | 0.50 ± 0.22 | 4.08 | 29.95 ± 7.30 | >85 | – | – | – | – | – | – | – | –
O=C(CCOc1no[n+]([O-])c1S(=O)(=O)c1ccccc1)Oc1ccccc1C(=O)O [Compound (11), 2-[(3-{[5-oxido-4-(phenylsulfonyl)-1,2,5-oxadiazol-3-yl]oxy}propanoyl)oxy]benzoic acid] | 0.50 ± 0.31 | 0.44 | 34.88 ± 4.69 | >90 | – | – | – | – | – | – | 169 to 170 | –
O=C(CCCO[N+](=O)[O-])Oc1ccccc1C(=O)O [(2), 2-{[4-(nitrooxy)butanoyl]oxy}benzoic acid] | – | – | – | – | 6 | 15 | 44 | 62 | 77 | YES | – | inhibition at 1 µM [6, 9]: 21%
O=C(Cc1ccc(OCC(CO[N+](=O)[O-])O[N+](=O)[O-])cc1)Oc1ccccc1C(=O)O (centres unmarked) | – | – | – | – | – | – | – | – | – | – | 94.5 to 95 | –
O=C(CCCCO[N+](=O)[O-])Oc1ccccc1C(=O)O [(3), 2-{[5-(nitrooxy)pentanoyl]oxy}benzoic acid] | – | – | – | – | 5 | 27 | 43 | 66 | 77 | YES | – | inhibition at 1 µM [6, 9]: 11%
O=C(CCCC(CO[N+](=O)[O-])O[N+](=O)[O-])Oc1ccccc1C(=O)O (centres unmarked) [Compound (7), 2-{[5,6-bis(nitrooxy)hexanoyl]oxy}benzoic acid] | 0.85 ± 0.64 | 4.87 | 26.19 ± 3.58 | >85 | – | – | – | – | – | – | – | –
O=C(CCOc1no[n+]([O-])c1-c1ccccc1)Oc1ccccc1C(=O)O [Compound 12, 2-[(3-{[5-oxido-4-phenyl-1,2,5-oxadiazol-3-yl]oxy}propanoyl)oxy]benzoic acid] | – | – | – | – | – | – | – | – | – | – | 152 to 153.9 | –

— US20080293781A1, “Salicylic Acid Derivatives” (priority 2005, published 2008)
